Test results published in US8058306B2, “Phenyl pyrrole aminoguanidine derivatives” (Action Pharma A/S, priority 2006, dated 2011).
Where “and” joins values, the source holds several entries; their conditions need not be identical. Identical values can stand only once. Entries after “also recorded” stand apart in the source; their conditions may differ. Like-named read-outs stand apart in the source and are kept apart here.

Assay: Plasma kinetics in rat following intravenous and oral administration;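 for AUC0-∞: parameter is AUC from zero to infinity in ng·h/mL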
Assay type: in vivo, Sprague Dawley rats
Conditions: male rats
Experimental: This study determined the intravenous pharmacokinetics and oral bioavailability of compound 1 of the invention (see FIG. 1A, structure no. 1), compound 2 of the invention (see FIG. 1D, structure no. 19) and compound 3 of the invention (see FIG. 1I, structure no. 53) following administration to Sprague Dawley rats at a dose level of 10 mg/kg.
Six groups of 3 male rats received either a single intravenous or single oral administration of compound 1, 2 or 3 of the invention at a dose level of 10 mg/kg. Blood samples were obtained at various times after dosing. Plasma samples were analysed for unchanged test item using a suitable LC-MS/MS method. Pharmacokinetic parameters were estimated from individual plasma concentrations.
Eighteen male rats each received either a single intravenous or a single oral administration of either compound 1, 2 or 3 at a dose level of 10 mg/kg. The formulation was orally administered to each animal by gastric gavage and intravenously administered to each animal via a tail vein. The dose was administered at a dose volume of 5 mL/kg. The formulations were administered to each animal according to the details in the following table:
Blood samples (ca 0.3 mL) were removed from the femoral vein of each animal into tubes containing lithium heparin as anticoagulant.
Blood samples were collected from 3 rats at the following times after dose administration: • 3, 6, 15, 45 min and 1.5, 2.5, 4, 6, 8, 24 h post dose. Oral Administration
Blood samples were collected from 3 rats at the following times after dose administration: • 5, 15, 45 min and 1.5, 2.5, 4, 6, 8, 24 h post dose. Processing of Blood Samples
Pharmacokinetic parameters of compound 1, 2 and 3 were derived by non-compartmental analysis using WinNonLin Pro version 5.0.1 (Pharsight 2005). The following parameters were derived, where appropriate, from the individual plasma concentration versus time profiles:
• F % The absolute oral bioavailability calculated as [AUC0-t (oral)*Dose(iv)/AUC0-t (iv)*Dose (oral)]*100 based on mean values derived after oral and intravenous administration Consideration was given to the estimation of λz and corresponding t1/2 values. Three or more points are required within the terminal phase for λz and t1/2 to be estimated. The following additional variables were tabulated to aid identification of potentially unreliable estimates of t1/2 and AUC:
Pharmacokinetic parameters were reported as geometric mean except Tmax which was reported as the median. Geometric coefficient of variation was calculated as: […]
Actual sampling times were used for all calculations of pharmacokinetic parameters. Plasma concentrations that were below the limit of quantification were taken as zero for the pharmacokinetic analysis.

[1] = oral 10 mg/kg, individual animals, acetate, 10 mg/kg

N=C(N)NN=CC=Cc1cccn1-c1ccccc1Br [Compound 3, [1-(2-bromophenyl)-1H-pyrrol-2-yl-allylideneamino]guanidinium acetate]
AUC(0-inf) (male, Sprague Dawley, rat, plasma, po, 10 mg/kg, oral 10 mg/kg, Geometric mean): 837 ng·h/mL
AUC(0-t) (male, Sprague Dawley, rat, plasma, po, 10 mg/kg, oral 10 mg/kg, Geometric mean, read-out: AUC0-t): 509 ng·h/mL
Cmax (male, Sprague Dawley, rat, plasma, po, 10 mg/kg, oral 10 mg/kg, Geometric mean, read-out: Cmax): 108 ng/mL
MRT (male, Sprague Dawley, rat, plasma, po, 10 mg/kg, oral 10 mg/kg, Geometric mean, read-out: MRT): 6.83 h
half-life (male, Sprague Dawley, rat, plasma, po, 10 mg/kg, oral 10 mg/kg, Geometric mean, read-out: t1/2 (converted)): 3.3 h
Tmax (male, Sprague Dawley, rat, plasma, po, 10 mg/kg, oral 10 mg/kg, Geometric mean, read-out: tmax): 4.59 h
AUC(0-inf) (male, Sprague Dawley, rat, plasma, po, 10 mg/kg, oral 10 mg/kg, Median): 838 ng·h/mL
AUC(0-t) (male, Sprague Dawley, rat, plasma, po, 10 mg/kg, oral 10 mg/kg, Median, read-out: AUC0-t): 565 ng·h/mL
Cmax (male, Sprague Dawley, rat, plasma, po, 10 mg/kg, oral 10 mg/kg, Median, read-out: Cmax): 112 ng/mL
MRT (male, Sprague Dawley, rat, plasma, po, 10 mg/kg, oral 10 mg/kg, Median, read-out: MRT): 6.83 h
half-life (male, Sprague Dawley, rat, plasma, po, 10 mg/kg, oral 10 mg/kg, Median, read-out: t1/2 (converted)): 3.3 h
Tmax (male, Sprague Dawley, rat, plasma, po, 10 mg/kg, oral 10 mg/kg, Median, read-out: tmax): 4.02 h
AUC(0-inf) (male, Sprague Dawley, rat, plasma, po, 10 mg/kg, oral 10 mg/kg, individual animals): 863 ng·h/mL
AUC(0-t) (male, Sprague Dawley, rat, plasma, po, 10 mg/kg, oral 10 mg/kg, individual animals, read-out: AUC0-t): 605 ng·h/mL
Cmax (male, Sprague Dawley, rat, plasma, po, 10 mg/kg, oral 10 mg/kg, individual animals, read-out: Cmax): 132 ng/mL
MRT (male, Sprague Dawley, rat, plasma, po, 10 mg/kg, oral 10 mg/kg, individual animals, read-out: MRT): 6.82 h
half-life (male, Sprague Dawley, rat, plasma, po, 10 mg/kg, oral 10 mg/kg, individual animals, read-out: t1/2 (converted)): 3.19 h
Tmax (male, Sprague Dawley, rat, plasma, po, 10 mg/kg, oral 10 mg/kg, individual animals, read-out: tmax): 4.02 h
Tmax (male, Sprague Dawley, rat, plasma, po, 10 mg/kg, oral 10 mg/kg, from mean plasma concentrations, read-out: time post dose at which maximum plasma concentration was observed (tmax)): 4 h
half-life (male, Sprague Dawley, rat, plasma, po, 10 mg/kg, oral 10 mg/kg, read-out: apparent terminal half-life (converted)): 3.3 h
concentration at 0.08 h (male, Sprague Dawley, rat, plasma, po, 10 mg/kg, single oral 10 mg/kg, 0.08 h, individual animals, LLOQ 2.50 (Table X: * 5.0, ** 25, diluted samples), read-out: Sample Concentration in plasma): 2.53 ng/mL
concentration at 0.08 h (male, Sprague Dawley, rat, plasma, po, 10 mg/kg, single oral 10 mg/kg, 0.08 h, mean, read-out: Mean Concentration in plasma): 2.53 ng/mL
concentration at 0.25 h (male, Sprague Dawley, rat, plasma, po, 10 mg/kg, single oral 10 mg/kg, 0.25 h, mean of 3, read-out: Mean Concentration in plasma): 20.5 ng/mL
concentration at 0.75 h (male, Sprague Dawley, rat, plasma, po, 10 mg/kg, single oral 10 mg/kg, 0.75 h, individual animals, read-out: Sample Concentration in plasma): 29.1 ng/mL
concentration at 0.75 h (male, Sprague Dawley, rat, plasma, po, 10 mg/kg, single oral 10 mg/kg, 0.75 h, mean of 3, read-out: Mean Concentration in plasma): 30.8 ng/mL
concentration at 1.5 h (male, Sprague Dawley, rat, plasma, po, 10 mg/kg, single oral 10 mg/kg, 1.5 h, mean of 3, read-out: Mean Concentration in plasma): 39.2 ng/mL
concentration at 2.5 h (male, Sprague Dawley, rat, plasma, po, 10 mg/kg, single oral 10 mg/kg, 2.5 h, mean of 3, read-out: Mean Concentration in plasma): 62.7 ng/mL
concentration at 4 h (male, Sprague Dawley, rat, plasma, po, 10 mg/kg, single oral 10 mg/kg, 4 h, individual animals, read-out: Sample Concentration in plasma): 112 ng/mL
concentration at 4 h (male, Sprague Dawley, rat, plasma, po, 10 mg/kg, single oral 10 mg/kg, 4 h, mean of 3, read-out: Mean Concentration in plasma): 92.5 ng/mL
concentration at 6 h (male, Sprague Dawley, rat, plasma, po, 10 mg/kg, single oral 10 mg/kg, 6 h, individual animals, read-out: Sample Concentration in plasma): 70.4 ng/mL
concentration at 6 h (male, Sprague Dawley, rat, plasma, po, 10 mg/kg, single oral 10 mg/kg, 6 h, mean of 3, read-out: Mean Concentration in plasma): 80.1 ng/mL
concentration at 8 h (male, Sprague Dawley, rat, plasma, po, 10 mg/kg, single oral 10 mg/kg, 8 h, individual animals, LLOQ 2.50, read-out: Sample Concentration in plasma): 50.1 ng/mL
concentration at 8 h (male, Sprague Dawley, rat, plasma, po, 10 mg/kg, single oral 10 mg/kg, 8 h, mean, LLOQ 2.50, read-out: Mean Concentration in plasma): 60.8 ng/mL
mean absorption time (MAT) (oral 10 mg/kg): 3.52 h
MAT (oral 10 mg/kg, Arithmetic Mean): 3.59 h
MAT (oral 10 mg/kg, Geometric mean): 3.52 h
MAT (oral 10 mg/kg, Median): 3.59 h
AUC0-∞ [1]: 812 ng·h/mL
AUC(0-t) [1]: 565 ng·h/mL and 386 ng·h/mL
Cmax [1]: 85.5 ng/mL
MAT [1]: 2.86 h and 4.32 h
MRT [1]: 6.84 h
Tmax [1]: 6.00 h
t1/2 [1]: 3.42 h
maximum observed plasma concentration, mean value (oral 10 mg/kg, at tmax): 92.5 ng/mL
Sample Concentration in plasma (single intravenous 10 mg/kg, 0.05 h, individual animals, acetate, 10 mg/kg): 2940 ng/mL and 4040 ng/mL
Sample Concentration in plasma (single intravenous 10 mg/kg, 0.1 h, individual animals, acetate, 10 mg/kg): 1300 ng/mL and 1030 ng/mL
Sample Concentration in plasma (single intravenous 10 mg/kg, 0.25 h, individual animals, acetate, 10 mg/kg): 904 ng/mL and 954 ng/mL
Sample Concentration in plasma (single intravenous 10 mg/kg, 0.75 h, individual animals, acetate, 10 mg/kg): 445 ng/mL and 545 ng/mL
Sample Concentration in plasma (single intravenous 10 mg/kg, 1.5 h, individual animals, acetate, 10 mg/kg): 327 ng/mL and 403 ng/mL
Sample Concentration in plasma (single intravenous 10 mg/kg, 2.5 h, individual animals, acetate, 10 mg/kg): 274 ng/mL and 240 ng/mL
Sample Concentration in plasma (single intravenous 10 mg/kg, 4 h, individual animals, acetate, 10 mg/kg): 225 ng/mL and 171 ng/mL
Sample Concentration in plasma (single intravenous 10 mg/kg, 6 h, individual animals, acetate, 10 mg/kg): 129 ng/mL and 124 ng/mL
Sample Concentration in plasma (single intravenous 10 mg/kg, 8 h, individual animals, LLOQ 2.50, acetate, 10 mg/kg): <LLOQ and 100 ng/mL
Sample Concentration in plasma (single intravenous 10 mg/kg, 24 h, individual animals, LLOQ 2.50, acetate, 10 mg/kg): <LLOQ and 2.55 ng/mL
adverse effects (single intravenous or oral administration, 10 mg/kg, acetate): No adverse effects; also recorded: No adverse affects
Sample Concentration in plasma (single oral 10 mg/kg, 0.08 h, individual animals, LLOQ 2.50 (Table X: * 5.0, ** 25, diluted samples), acetate, 10 mg/kg): <LLOQ
Sample Concentration in plasma (single oral 10 mg/kg, 0.25 h, individual animals, acetate, 10 mg/kg): 14.7 ng/mL and 14.1 ng/mL and 32.8 ng/mL
Sample Concentration in plasma (single oral 10 mg/kg, 0.75 h, individual animals, acetate, 10 mg/kg): 26.6 ng/mL and 36.6 ng/mL
Sample Concentration in plasma (single oral 10 mg/kg, 1.5 h, individual animals, acetate, 10 mg/kg): 61.4 ng/mL and 19.2 ng/mL and 37.0 ng/mL
Sample Concentration in plasma (single oral 10 mg/kg, 2.5 h, individual animals, acetate, 10 mg/kg): 82.5 ng/mL and 37.2 ng/mL and 68.4 ng/mL
Sample Concentration in plasma (single oral 10 mg/kg, 4 h, individual animals, acetate, 10 mg/kg): *33.4 ng/mL and 132 ng/mL
Sample Concentration in plasma (single oral 10 mg/kg, 6 h, individual animals, acetate, 10 mg/kg): 85.5 ng/mL and 84.5 ng/mL
Sample Concentration in plasma (single oral 10 mg/kg, 8 h, individual animals, LLOQ 2.50, acetate, 10 mg/kg): 76.1 ng/mL and 56.2 ng/mL
Sample Concentration in plasma (single oral 10 mg/kg, 24 h, individual animals, LLOQ 2.50): <LLOQ
Mean Concentration in plasma (single oral 10 mg/kg, 24 h, mean, LLOQ 2.50): <LLOQ
